Drawing on the supplement of paper PMC10307832, this text covers relative viability for five cell lines.

Holding throughout (assay): relative viability (nuclei count vs DMSO), 5 days (fraction); higher = more cells survive
Compound in the experiment “Trametinib + Pemetrexed”: CC(=O)Nc1cccc(-n2c(=O)n(C3CC3)c(=O)c3c(Nc4ccc(I)cc4F)n(C)c(=O)c(C)c32)c1 [Trametinib] + Nc1nc2[nH]cc(CCc3ccc(C(=O)N[C@@H](CCC(=O)O)C(=O)O)cc3)c2c(=O)[nH]1 [Pemetrexed] (partner 0.2 µM)
The method in brief:
(§1)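 Lung cancer cell lines were seeded in 1536-well plates and dosed by pin tool the next day, with either a single drug or a fixed anchor-drug dose combined with five library-drug doses (not always all listed) spaced in √10 steps. Five days later, one step fixed the cells and stained their nuclei (final 0.05% Triton X-100, 1% formaldehyde, 1 ug/ml Hoechst), and nuclei were counted on 4× images. Relative viability is the nuclei count in treated wells divided by the count in vehicle wells, and each value is the median of duplicate plates.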

Compound in the experiment “Trametinib + Palbociclib”: CC(=O)Nc1cccc(-n2c(=O)n(C3CC3)c(=O)c3c(Nc4ccc(I)cc4F)n(C)c(=O)c(C)c32)c1 [Trametinib] + CC(=O)c1c(C)c2cnc(Nc3ccc(N4CCNCC4)cn3)nc2n(C2CCCC2)c1=O [Palbociclib] (partner 0.5 µM)
The method in brief:
as §1

Compound in experiment [1]: CN1C=C(C2=CC=CC=C21)/C=C\3/C4=C(C=CC=N4)NC3=O + CC(C)C[C@H](NC(=O)[C@H](Cc1ccccc1)NC(=O)c1cnccn1)B(O)O [Bortezomib] (partner 0.002 µM)
Summed up: as §1

Compound in experiment [2]: CN1C=C(C2=CC=CC=C21)/C=C\3/C4=C(C=CC=N4)NC3=O + CS(=O)(=O)CCNCc1ccc(-c2ccc3ncnc(Nc4ccc(OCc5cccc(F)c5)c(Cl)c4)c3c2)o1 [Lapatinib] (partner 2 µM)
Summed up:
as §1

In the case of COR-L 105, the relative viability with Trametinib + Pemetrexed (first compound 0.0025 µM) came to 0.984; with Trametinib + Pemetrexed (first compound 0.007906 µM), 0.825; with Trametinib + Pemetrexed (first compound 0.025 µM), 0.69; with Trametinib + Pemetrexed (first compound 0.07906 µM), 0.488; in the experiment with Trametinib + Pemetrexed (first compound 0.25 µM) it was 0.42; in the experiment with Trametinib + Palbociclib (first compound 0.0025 µM), 0.39. Further, the relative viability was determined as 0.44 in the experiment with Trametinib + Palbociclib (first compound 0.007906 µM); 0.421 with Trametinib + Palbociclib (first compound 0.025 µM); 0.34 in the experiment with Trametinib + Palbociclib (first compound 0.07906 µM); 0.347 in the experiment with Trametinib + Palbociclib (first compound 0.25 µM); 0.743 in experiment [1] (first compound 0.02 µM); 0.749 in experiment [1] (first compound 0.06325 µM). The relative viability in experiment [1] (first compound 0.2 µM) came to 0.693; in experiment [1] (first compound 0.6325 µM) it was 0.675; in experiment [1] (first compound 2 µM) it was 0.811; in experiment [2] (first compound 0.02 µM), 0.33; in experiment [2] (first compound 0.06325 µM), 0.334; in experiment [2] (first compound 0.2 µM) it was 0.362. In addition, the results for the relative viability in experiment [2] (first compound 0.6325 µM) and in experiment [2] (first compound 2 µM) were 0.344 and 0.397, respectively.
With NCI-H1755, the relative viability with Trametinib + Pemetrexed (first compound 0.0025 µM) turned out to be 0.378; with Trametinib + Pemetrexed (first compound 0.007906 µM), 0.452; with Trametinib + Pemetrexed (first compound 0.025 µM), 0.411; with Trametinib + Pemetrexed (first compound 0.07906 µM), 0.47; with Trametinib + Pemetrexed (first compound 0.25 µM) it was 0.397; with Trametinib + Palbociclib (first compound 0.0025 µM), 0.425. For the same cell line, the relative viability in the experiment with Trametinib + Palbociclib (first compound 0.007906 µM) came to 0.406; in the experiment with Trametinib + Palbociclib (first compound 0.025 µM) it was 0.384; in the experiment with Trametinib + Palbociclib (first compound 0.07906 µM) it was 0.392; in the experiment with Trametinib + Palbociclib (first compound 0.25 µM) it was 0.365; in experiment [1] (first compound 0.02 µM), 0.953; in experiment [1] (first compound 0.06325 µM), 0.889. For the same cell line, the relative viability in experiment [1] (first compound 0.2 µM) came out at 0.868; in experiment [1] (first compound 0.6325 µM) it was 0.953; in experiment [1] (first compound 2 µM), 0.87; in experiment [2] (first compound 0.02 µM), 0.966; in experiment [2] (first compound 0.06325 µM), 0.918; in experiment [2] (first compound 0.2 µM) it was 0.903. In addition, the relative viability worked out at 0.959 in experiment [2] (first compound 0.6325 µM) and 0.958 in experiment [2] (first compound 2 µM).
NCI-H2085: the relative viability with Trametinib + Pemetrexed (first compound 0.0025 µM) is 0.752; in the experiment with Trametinib + Pemetrexed (first compound 0.007906 µM) it was 0.676; with Trametinib + Pemetrexed (first compound 0.025 µM), 0.545; in the experiment with Trametinib + Pemetrexed (first compound 0.07906 µM), 0.528; with Trametinib + Pemetrexed (first compound 0.25 µM), 0.516; with Trametinib + Palbociclib (first compound 0.0025 µM), 0.494. Also, the relative viability was found to be 0.421 with Trametinib + Palbociclib (first compound 0.007906 µM); 0.371 in the experiment with Trametinib + Palbociclib (first compound 0.025 µM); 0.395 with Trametinib + Palbociclib (first compound 0.07906 µM); 0.406 with Trametinib + Palbociclib (first compound 0.25 µM); 0.993 in experiment [1] (first compound 0.02 µM); 1.07 in experiment [1] (first compound 0.06325 µM). Further, the relative viability stood at 0.995 in experiment [1] (first compound 0.2 µM); 1.07 in experiment [1] (first compound 0.6325 µM); 1.04 in experiment [1] (first compound 2 µM); 0.746 in experiment [2] (first compound 0.02 µM); 0.654 in experiment [2] (first compound 0.06325 µM); 0.596 in experiment [2] (first compound 0.2 µM). Also, the relative viability is 0.605 in experiment [2] (first compound 0.6325 µM) and 0.813 in experiment [2] (first compound 2 µM).
NCI-H2023: the relative viability with Trametinib + Pemetrexed (first compound 0.0025 µM) was 0.205; with Trametinib + Pemetrexed (first compound 0.007906 µM), 0.187; with Trametinib + Pemetrexed (first compound 0.025 µM), 0.184; with Trametinib + Pemetrexed (first compound 0.07906 µM) it was 0.189; in the experiment with Trametinib + Pemetrexed (first compound 0.25 µM), 0.14; with Trametinib + Palbociclib (first compound 0.0025 µM), 0.348. The relative viability in the experiment with Trametinib + Palbociclib (first compound 0.007906 µM) was 0.3; in the experiment with Trametinib + Palbociclib (first compound 0.025 µM), 0.24; with Trametinib + Palbociclib (first compound 0.07906 µM), 0.196; with Trametinib + Palbociclib (first compound 0.25 µM), 0.119; in experiment [1] (first compound 0.02 µM), 1.09; in experiment [1] (first compound 0.06325 µM) it was 0.903. Also, the relative viability came to 0.268 in experiment [1] (first compound 0.2 µM); 0.958 in experiment [1] (first compound 0.6325 µM); 1.04 in experiment [1] (first compound 2 µM); 0.709 in experiment [2] (first compound 0.02 µM); 0.739 in experiment [2] (first compound 0.06325 µM); 0.222 in experiment [2] (first compound 0.2 µM). The relative viability is 0.652 in experiment [2] (first compound 0.6325 µM) and 0.684 in experiment [2] (first compound 2 µM).
HOP-62: the relative viability came to 0.407 in the experiment with Trametinib + Pemetrexed (first compound 0.0025 µM); 0.31 in the experiment with Trametinib + Pemetrexed (first compound 0.007906 µM); 0.345 in the experiment with Trametinib + Pemetrexed (first compound 0.025 µM); 0.308 with Trametinib + Pemetrexed (first compound 0.07906 µM); 0.183 with Trametinib + Pemetrexed (first compound 0.25 µM); 0.505 with Trametinib + Palbociclib (first compound 0.0025 µM). The relative viability in the experiment with Trametinib + Palbociclib (first compound 0.007906 µM) is 0.444; with Trametinib + Palbociclib (first compound 0.025 µM), 0.397; with Trametinib + Palbociclib (first compound 0.07906 µM), 0.231; in the experiment with Trametinib + Palbociclib (first compound 0.25 µM), 0.158; in experiment [1] (first compound 0.02 µM) it was 1.05; in experiment [1] (first compound 0.06325 µM), 0.746. Besides, the relative viability in experiment [1] (first compound 0.2 µM) came to 0.285; in experiment [1] (first compound 0.6325 µM) it was 0.535; in experiment [1] (first compound 2 µM), 0.529; in experiment [2] (first compound 0.02 µM), 1.28; in experiment [2] (first compound 0.06325 µM) it was 1.21; in experiment [2] (first compound 0.2 µM), 0.688. For the same cell line, the relative viability in experiment [2] (first compound 0.6325 µM) was found to be 0.882; in experiment [2] (first compound 2 µM), 1.06.
